Source: paper PMC5448077, “Development of an orally available inhibitor of CLK1 for skipping a mutated dystrophin exon in Duchenne muscular dystrophy” (Scientific Reports, 2017)

Key:
Test in all cases: biochemical
CaMK4 = CaMK4 (Homo sapiens, UniProt Q16566)
Description: (§1) These assays rely on the phosphorylation of small synthetic peptides developed for each kinase, and detect activity by changes in electrophoretic mobility (MSA assay) or by binding of a fluorescently labelled peptide to a large micro-particle and concomitant polarization increases (IMAP assay). Reaction conditions for each kinase are described in Supplementary Table S5. All kinase assays were carried out at Carna Biosciences (Kobe, Japan). The inhibitory map was constructed using Kinome Render[41]. Inhibitor (4×), substrate/ATP-Metal (4×), and kinase (2×) solutions were prepared with assay buffer (20 mM HEPES, 0.01% Triton X-100, 2 mM DTT, pH 7.5) and mixed in 384-well plates at room temperature for 1 or 5 h depending on the kinase. Reactions were stopped by the addition of termination buffer (QuickScout Screening Assist MSA; Carna Biosciences). The entire reaction mixture was then applied to a LabChip system (Perkin-Elmer, Waltham, MA, USA) and the product and substrate peptide peaks were separated and quantified, and then heights of product (P) and substrate (S) peptide peaks were calculated. The level of kinase activity was evaluated with the following equation: activity = P/(P + S).

BRSK2 = BRSK2 (Homo sapiens, UniProt Q8IWQ3)
Description: as §1

AurC = molecular target: T1, AurC (Homo sapiens, UniProt Q9UQB9)
T1 construct: gene AURKC
T1 sequence (Q9UQB9 whole entry): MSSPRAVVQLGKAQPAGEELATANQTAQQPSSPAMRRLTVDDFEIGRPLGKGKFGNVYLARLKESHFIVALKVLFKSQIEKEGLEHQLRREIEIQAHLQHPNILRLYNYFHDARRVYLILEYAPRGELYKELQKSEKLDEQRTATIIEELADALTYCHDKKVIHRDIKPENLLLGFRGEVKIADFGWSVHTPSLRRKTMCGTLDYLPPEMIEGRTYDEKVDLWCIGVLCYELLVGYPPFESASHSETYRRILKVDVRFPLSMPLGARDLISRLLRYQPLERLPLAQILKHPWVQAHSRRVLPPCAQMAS
Description: as §1

FRK = FRK (Homo sapiens, UniProt P42685)
Description: as §1

CGK2 = molecular target: T2, CGK2 (Homo sapiens, UniProt Q13237)
T2 construct: gene PRKG2
Description: as §1

KIT(T670I) = KIT(T670I) (Homo sapiens, UniProt P10721, T670I)
KIT(T670I), sequence (P10721 whole entry T670I): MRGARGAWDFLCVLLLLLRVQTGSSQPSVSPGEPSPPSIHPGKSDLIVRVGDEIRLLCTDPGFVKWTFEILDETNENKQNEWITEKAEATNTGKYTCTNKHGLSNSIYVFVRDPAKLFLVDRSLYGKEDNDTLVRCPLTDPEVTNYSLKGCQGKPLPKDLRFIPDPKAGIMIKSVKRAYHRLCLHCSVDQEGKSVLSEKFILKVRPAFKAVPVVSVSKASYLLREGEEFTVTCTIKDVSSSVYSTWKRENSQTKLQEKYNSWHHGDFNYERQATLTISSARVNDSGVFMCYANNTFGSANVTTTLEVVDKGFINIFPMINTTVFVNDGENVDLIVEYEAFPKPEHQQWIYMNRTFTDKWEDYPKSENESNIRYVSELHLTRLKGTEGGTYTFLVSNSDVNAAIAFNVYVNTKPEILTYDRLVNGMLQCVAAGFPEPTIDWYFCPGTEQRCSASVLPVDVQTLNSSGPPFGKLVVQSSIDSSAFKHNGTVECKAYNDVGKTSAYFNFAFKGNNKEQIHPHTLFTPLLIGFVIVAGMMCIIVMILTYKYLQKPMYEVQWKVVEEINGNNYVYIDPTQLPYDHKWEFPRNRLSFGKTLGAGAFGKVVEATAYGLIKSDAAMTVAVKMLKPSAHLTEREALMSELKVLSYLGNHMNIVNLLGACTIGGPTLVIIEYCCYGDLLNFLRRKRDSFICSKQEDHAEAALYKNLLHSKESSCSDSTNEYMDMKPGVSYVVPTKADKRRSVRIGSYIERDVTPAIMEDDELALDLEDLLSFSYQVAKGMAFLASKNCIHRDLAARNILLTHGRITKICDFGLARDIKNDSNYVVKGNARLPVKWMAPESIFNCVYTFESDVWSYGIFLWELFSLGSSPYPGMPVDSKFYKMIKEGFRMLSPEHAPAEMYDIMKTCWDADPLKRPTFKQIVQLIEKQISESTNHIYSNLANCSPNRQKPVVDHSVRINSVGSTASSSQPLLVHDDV
Description: as §1

EGFR(L861Q) = EGFR(L861Q) (Homo sapiens, UniProt P00533, L861Q)
Description: as §1

PAK6 = PAK6 (Homo sapiens, UniProt Q9NQU5)
PAK6, sequence (Q9NQU5 whole entry): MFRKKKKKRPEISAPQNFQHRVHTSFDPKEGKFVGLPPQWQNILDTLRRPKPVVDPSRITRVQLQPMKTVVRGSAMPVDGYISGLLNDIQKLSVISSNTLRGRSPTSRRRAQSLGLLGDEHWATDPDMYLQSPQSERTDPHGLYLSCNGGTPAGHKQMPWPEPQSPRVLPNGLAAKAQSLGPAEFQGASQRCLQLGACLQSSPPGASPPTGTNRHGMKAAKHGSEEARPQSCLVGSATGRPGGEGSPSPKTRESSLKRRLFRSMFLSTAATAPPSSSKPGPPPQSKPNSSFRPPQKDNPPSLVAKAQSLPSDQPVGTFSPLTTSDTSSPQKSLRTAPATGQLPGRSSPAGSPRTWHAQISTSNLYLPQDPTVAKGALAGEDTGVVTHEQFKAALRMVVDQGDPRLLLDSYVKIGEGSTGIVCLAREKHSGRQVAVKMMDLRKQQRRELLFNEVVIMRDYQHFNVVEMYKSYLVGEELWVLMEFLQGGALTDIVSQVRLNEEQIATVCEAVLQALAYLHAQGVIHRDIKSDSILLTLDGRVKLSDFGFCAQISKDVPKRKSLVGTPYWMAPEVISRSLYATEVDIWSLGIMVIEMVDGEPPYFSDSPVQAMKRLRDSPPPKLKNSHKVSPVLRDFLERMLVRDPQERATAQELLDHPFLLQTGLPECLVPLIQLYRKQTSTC
Description: as §1

CaMK1α = molecular target: T3, CaMK1α (Homo sapiens, UniProt Q14012)
T3 construct: gene CAMK1
Description: as §1

IRR = molecular target: T4, IRR (Homo sapiens, UniProt P14616)
T4 construct: gene INSRR
Description: as §1

MARK3 = MARK3 (Homo sapiens, UniProt P27448)
Description: as §1

MRCKβ = molecular target: T5, MRCKβ (Homo sapiens, UniProt Q9Y5S2)
T5 construct: gene CDC42BPB
Description: as §1

PAK1 = PAK1 (Homo sapiens, UniProt Q13153)
Description: as §1

TSSK1 = molecular target: T6, TSSK1 (Homo sapiens, UniProt Q9BXA7)
T6 construct: gene TSSK1B
Description: as §1

BTK = BTK (Homo sapiens, UniProt Q06187)
Description: as §1

SGK2 = SGK2 (Homo sapiens, UniProt Q9HBY8)
SGK2, sequence (Q9HBY8 whole entry): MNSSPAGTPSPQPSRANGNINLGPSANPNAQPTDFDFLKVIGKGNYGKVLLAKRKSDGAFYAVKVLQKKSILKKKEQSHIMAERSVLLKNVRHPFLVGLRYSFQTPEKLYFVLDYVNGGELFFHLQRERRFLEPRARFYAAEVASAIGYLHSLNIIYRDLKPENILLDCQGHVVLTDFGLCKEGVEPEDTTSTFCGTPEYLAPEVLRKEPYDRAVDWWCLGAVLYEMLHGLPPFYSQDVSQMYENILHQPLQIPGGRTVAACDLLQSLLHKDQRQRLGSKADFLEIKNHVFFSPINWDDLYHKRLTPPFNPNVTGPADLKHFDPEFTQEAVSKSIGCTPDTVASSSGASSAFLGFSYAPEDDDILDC
Description: as §1

NDR2 = molecular target: T7, NDR2 (Homo sapiens, UniProt Q9Y2H1)
T7 construct: gene STK38L
Description: as §1

PKCγ = molecular target: T8, PKCγ (Homo sapiens, UniProt P05129)
T8 construct: gene PRKCG
Description: as §1

MSK2 = molecular target: T9, MSK2 (Homo sapiens, UniProt O75676)
T9 construct: gene RPS6KA4
Description: as §1

SRM = molecular target: T10, SRM (Homo sapiens, UniProt Q9H3Y6)
T10 construct: gene SRMS
Description: as §1

TBK1 = TBK1 (Homo sapiens, UniProt Q9UHD2)
Description: as §1

CK1α = molecular target: T11, CK1α (Homo sapiens, UniProt P48729)
T11 construct: gene CSNK1A1
Description: as §1

Erk1 = molecular target: T12, Erk1 (Homo sapiens, UniProt P27361)
T12 construct: gene MAPK3
Description: as §1

TRKA = molecular target: T13, TRKA (Homo sapiens, UniProt P04629)
T13 construct: gene NTRK1
T13 sequence (P04629 whole entry): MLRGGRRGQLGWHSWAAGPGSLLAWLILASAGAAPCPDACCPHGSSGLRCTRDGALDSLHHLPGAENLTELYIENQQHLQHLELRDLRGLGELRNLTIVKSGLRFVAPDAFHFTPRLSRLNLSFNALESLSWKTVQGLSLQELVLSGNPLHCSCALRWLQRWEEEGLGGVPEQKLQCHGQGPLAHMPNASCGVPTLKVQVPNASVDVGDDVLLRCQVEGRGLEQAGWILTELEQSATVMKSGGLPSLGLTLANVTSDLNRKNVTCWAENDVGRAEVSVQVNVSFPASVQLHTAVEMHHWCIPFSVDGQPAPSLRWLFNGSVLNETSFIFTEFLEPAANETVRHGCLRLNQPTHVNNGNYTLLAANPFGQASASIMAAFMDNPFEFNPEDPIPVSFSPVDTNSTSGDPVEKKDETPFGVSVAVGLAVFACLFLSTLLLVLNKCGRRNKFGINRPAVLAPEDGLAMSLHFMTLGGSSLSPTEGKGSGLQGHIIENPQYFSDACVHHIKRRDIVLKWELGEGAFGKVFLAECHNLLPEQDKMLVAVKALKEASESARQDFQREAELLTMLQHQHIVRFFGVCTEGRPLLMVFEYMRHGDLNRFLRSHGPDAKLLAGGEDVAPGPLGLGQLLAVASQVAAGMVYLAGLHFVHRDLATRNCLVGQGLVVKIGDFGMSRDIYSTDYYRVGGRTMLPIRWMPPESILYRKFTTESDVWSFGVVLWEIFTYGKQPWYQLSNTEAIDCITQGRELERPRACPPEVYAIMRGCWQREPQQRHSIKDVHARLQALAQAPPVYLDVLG
Description: as §1

PIM2 = PIM2 (Homo sapiens, UniProt Q9P1W9)
Description: as §1

PDGFRα = molecular target: T14, PDGFRα (Homo sapiens, UniProt P16234)
T14 construct: gene PDGFRA
T14 sequence (P16234 whole entry): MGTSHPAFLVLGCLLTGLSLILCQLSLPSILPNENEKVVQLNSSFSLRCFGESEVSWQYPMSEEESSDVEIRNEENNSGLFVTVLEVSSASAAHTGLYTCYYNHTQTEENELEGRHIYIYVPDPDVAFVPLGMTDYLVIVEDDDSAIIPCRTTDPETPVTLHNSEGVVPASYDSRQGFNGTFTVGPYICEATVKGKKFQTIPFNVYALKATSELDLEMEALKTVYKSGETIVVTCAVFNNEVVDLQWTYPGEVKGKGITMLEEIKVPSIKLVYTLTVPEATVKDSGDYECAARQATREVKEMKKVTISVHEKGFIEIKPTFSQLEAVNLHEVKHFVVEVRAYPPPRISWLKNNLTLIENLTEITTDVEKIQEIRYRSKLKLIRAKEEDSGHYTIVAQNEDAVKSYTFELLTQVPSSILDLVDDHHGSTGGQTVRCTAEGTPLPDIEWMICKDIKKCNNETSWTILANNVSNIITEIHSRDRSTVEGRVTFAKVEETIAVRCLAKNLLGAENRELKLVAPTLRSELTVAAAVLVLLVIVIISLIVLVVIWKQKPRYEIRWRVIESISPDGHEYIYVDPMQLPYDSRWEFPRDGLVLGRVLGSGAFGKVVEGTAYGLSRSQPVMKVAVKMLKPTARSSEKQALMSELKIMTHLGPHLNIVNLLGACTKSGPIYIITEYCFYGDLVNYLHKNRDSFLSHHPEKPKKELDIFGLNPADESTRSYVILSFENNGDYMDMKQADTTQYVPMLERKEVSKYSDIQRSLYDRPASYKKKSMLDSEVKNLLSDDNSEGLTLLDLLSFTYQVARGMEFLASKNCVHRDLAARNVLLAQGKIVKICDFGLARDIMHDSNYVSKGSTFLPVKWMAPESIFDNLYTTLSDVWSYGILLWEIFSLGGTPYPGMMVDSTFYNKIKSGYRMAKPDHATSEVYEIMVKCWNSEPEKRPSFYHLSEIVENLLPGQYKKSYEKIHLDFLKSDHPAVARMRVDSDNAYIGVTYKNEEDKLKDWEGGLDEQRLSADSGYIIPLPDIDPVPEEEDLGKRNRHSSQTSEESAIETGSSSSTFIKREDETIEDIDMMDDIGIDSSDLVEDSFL
Description: as §1

KIT(D816E) = KIT(D816E) (Homo sapiens, UniProt P10721, D816E)
KIT(D816E), sequence (P10721 whole entry D816E): as the sequence (P10721 whole entry T670I) above, with I670T, D816E counted along it
Description: as §1

p70S6K = molecular target: T15, p70S6K (Homo sapiens, UniProt P23443)
T15 construct: gene RPS6KB1
T15 sequence (P23443 whole entry): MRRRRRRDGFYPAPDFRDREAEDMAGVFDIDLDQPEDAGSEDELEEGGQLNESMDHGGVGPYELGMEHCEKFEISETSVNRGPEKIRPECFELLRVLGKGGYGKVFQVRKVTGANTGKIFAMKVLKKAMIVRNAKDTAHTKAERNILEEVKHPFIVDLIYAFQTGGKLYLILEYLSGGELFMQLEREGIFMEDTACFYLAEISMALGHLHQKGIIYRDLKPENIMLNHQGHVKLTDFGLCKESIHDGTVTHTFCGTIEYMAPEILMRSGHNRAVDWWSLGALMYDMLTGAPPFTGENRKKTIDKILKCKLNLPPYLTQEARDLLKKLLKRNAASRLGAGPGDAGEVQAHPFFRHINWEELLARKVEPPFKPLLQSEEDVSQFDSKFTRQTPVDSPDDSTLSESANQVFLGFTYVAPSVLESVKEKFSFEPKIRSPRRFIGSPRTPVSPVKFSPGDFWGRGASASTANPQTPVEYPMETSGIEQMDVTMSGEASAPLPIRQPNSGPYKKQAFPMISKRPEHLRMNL
Description: as §1

MARK2 = MARK2 (Homo sapiens, UniProt Q7KZI7)
Description: as §1

ALK(C1156Y) = ALK(C1156Y) (Homo sapiens, UniProt Q9UM73, C1156Y)
Description: as §1

SRPK2 = SRPK2 (Homo sapiens, UniProt P78362)
Description: as §1

c1cc(-c2ccc3[nH]ncc3c2)ccn1 [TG693, 5-(4-pyridinyl)-1H-indazole]
inhibition at 1 µM (CaMK4): 0.5%
inhibition at 1 µM (BRSK2): 6.7%
inhibition at 1 µM (AurC): 2.5%
inhibition at 1 µM (FRK): -2.3%
inhibition at 1 µM (CGK2): 38.5%
inhibition at 1 µM (KIT(T670I)): -0.7%
inhibition at 1 µM (EGFR(L861Q)): -5.4%
inhibition at 1 µM (PAK6): -4.3%
inhibition at 1 µM (CaMK1α): 1.5%
inhibition at 1 µM (IRR): 3%
inhibition at 1 µM (MARK3): 15.5%
inhibition at 1 µM (MRCKβ): -7.3%
inhibition at 1 µM (PAK1): -3.8%
inhibition at 1 µM (TSSK1): 3%
inhibition at 1 µM (BTK): -9.5%
inhibition at 1 µM (SGK2): -5.4%
inhibition at 1 µM (NDR2): 7.5%
inhibition at 1 µM (PKCγ): -11.4%
inhibition at 1 µM (MSK2): -5.1%
inhibition at 1 µM (SRM): 1.5%
inhibition at 1 µM (TBK1): 5.8%
inhibition at 1 µM (CK1α): 11.9%
inhibition at 1 µM (Erk1): 1.4%
inhibition at 1 µM (TRKA): 5.1%
inhibition at 1 µM (PIM2): -3.5%
inhibition at 1 µM (PDGFRα): 6.2%
inhibition at 1 µM (KIT(D816E)): -6.8%
inhibition at 1 µM (p70S6K): 46%
inhibition at 1 µM (MARK2): 20.3%
inhibition at 1 µM (ALK(C1156Y)): 0.1%
inhibition at 1 µM (SRPK2): 0.5%
